Experimental data as given in PubChem BioAssay AID2060497 (Molecular Pharmacology Branch, DTP, NCI, 2025).

System: 317291-083-R-J1-PDC complex spheroids, viability
Assay: Anticancer human tumor 317291-083-R-J1-PDC patient-derived soft tissue sarcoma cell line growth inhibition [GQUAD]
Details: for IC50: curve of first compound; for viability, T/C: stronger effect = lower value
From the text: DNA G-quadruplex Stabilizer Agents in Combinations in Complex Spheroids
A high-throughput screen of multi-cell type tumor spheroids was designed to identify active combinations of DNA G-quadruplex stabilizer agents and targeted small molecules. Complex spheroids include a stromal component modeled by human endothelial cells (HUVEC) and fibroblasts modeled by human mesenchymal stem cells (MSCs). The concentration ranges selected for each drug and investigational agent were based upon clinically achievable concentrations if the clinical Cmax of the agent was known.
Compounds. The drugs and investigational agents: pidnarulex (CX-5461; NSC782164), APTO-253 (NSC789042), BRACO-19 (NSC847499), peposertib (NSC802822), ceralasertib (NSC780249), elimusertib (NSC800525), camonsertib (NSC841442), AZD-1390 (NSC803789), olaparib (NSC753686), talazoparib (NSC767125), ART-558 (NSC835418), sotorasib (NSC818433), MRTX-1133 (NSC836407), SN-38 (NSC673596), topotecan (NSC609699), etoposide (NSC141540), doxorubicin (NSC123127), gemcitabine (NSC613327), 5-fluorouracil (NSC19893), paclitaxel (NSC125973), vemurafenib (NSC761431), panobinostat (NSC761190), R-306465 (JNJ-16241199; NSC773264), adavosertib (NSC754352), TP-3654 (NSC805149), carboplatin (NSC241240), KSQ-4279 (NSC840948), and staurosporine (NSC755774) were obtained from the National Cancer Institute (NCI) Developmental Therapeutics Program Chemical Repository (34). The FDA-approved anticancer drug set is available from the NCI Developmental Therapeutics Program. […] The stock solutions were prepared in dimethyl sulfoxide (DMSO, Sigma-Aldrich, St. Louis, MO, cat. D2650) at 800-fold the tested concentration and stored at -70 degrees C prior to their use. All drugs and investigational agents were tested over a range starting from a high concentration at or near the clinical Cmax and decreasing in half-log increments. If the clinical Cmax for an agent had not been determined, the highest concentration tested was 10 microM.
2.3 Cell Culture. All cells were maintained in an incubator at 37 degrees C and 5% CO2 with 95% humidity. The PDC lines were cultured according to standard operating procedures established by the NCI PDMR. All PDCs were thawed and cultured in Matrigel-coated flasks prepared with a working solution of 1X Ham's F-12 nutrient mix, without supplementation (Invitrogen, cat. 11765054), 100 U/mL penicillin-streptomycin (Invitrogen, cat. 15140122), and 2.5% Matrigel (Corning Inc., cat. 354248) for the first three passages. The 857933-349-R-J2-PDC line was cultured in 6C/Colon 1B media, which includes advanced DMEM/F-12 (Thermo Fisher Scientific, cat. 12634028), 10 mM HEPES (Thermo Fisher Scientific, cat. 15630080), 1X GlutaMAX supplement (Thermo Fisher Scientific, cat. 35050061), 0.1 mg/mL primocin (InvivoGen, cat. ant-pm-2), 10% defined fetal bovine serum, heat inactivated (HyClone Laboratories Inc., cat. SH30070.03HI), 50% L-WRN conditioned media (ATCC, cat. CRL-3276), 1.25 mM N-Acetyl-L-cysteine (Sigma-Aldrich, cat. A9165), 10 mM nicotinamide (Sigma-Aldrich, cat. N0636), 1X B-27 supplement (Thermo Fisher Scientific, cat. 17504044), 1X N-2 supplement (Thermo Fisher Scientific, cat. 17502048), 10 microM Y-27632 dihydrochloride (Tocris Bioscience, cat. 1254), and 50 ng/mL human EGF recombinant protein (Thermo Fisher Scientific, cat. PHG0311). The 485176-168-R4-J1-PDC line was cultured in Panc media, which includes all 6C/Colon 1B media components plus 100 ng/mL human FGF-10 (Thermo Fisher Scientific, cat. 100-26), 500 nM SB-431542 (Selleckchem, cat. S1067), and gastrin (Tocris, cat. 3006).
[…]

[1] = second compound 0.0316 µM, first compound 0.0316 µM
[2] = second compound 0.0316 µM, first compound 0.1 µM
[3] = second compound 0.0316 µM, first compound 0.316 µM
[4] = second compound 0.0316 µM, first compound 1 µM
[5] = second compound 0.0316 µM, first compound 3.16 µM
[6] = second compound 0.0316 µM, first compound 10 µM
[7] = second compound 0.1 µM, first compound 0.0316 µM
[8] = second compound 0.1 µM, first compound 0.1 µM
[9] = second compound 0.1 µM, first compound 0.316 µM
[10] = second compound 0.1 µM, first compound 1 µM
[11] = second compound 0.1 µM, first compound 3.16 µM
[12] = second compound 0.1 µM, first compound 10 µM
[13] = second compound 0.316 µM, first compound 0.0316 µM
[14] = second compound 0.316 µM, first compound 0.1 µM
[15] = second compound 0.316 µM, first compound 0.316 µM
[16] = second compound 0.316 µM, first compound 1 µM
[17] = second compound 0.316 µM, first compound 3.16 µM
[18] = second compound 0.316 µM, first compound 10 µM
[19] = second compound 1 µM, first compound 0.0316 µM
[20] = second compound 1 µM, first compound 0.1 µM
[21] = second compound 1 µM, first compound 0.316 µM
[22] = second compound 1 µM, first compound 1 µM
[23] = second compound 1 µM, first compound 3.16 µM
[24] = second compound 1 µM, first compound 10 µM
[25] = second compound 3.16 µM, first compound 0.0316 µM
[26] = second compound 3.16 µM, first compound 0.1 µM
[27] = second compound 3.16 µM, first compound 0.316 µM
[28] = second compound 3.16 µM, first compound 1 µM
[29] = second compound 3.16 µM, first compound 3.16 µM
[30] = second compound 3.16 µM, first compound 10 µM
[31] = second compound 10 µM, first compound 0.0316 µM
[32] = second compound 10 µM, first compound 0.1 µM
[33] = second compound 10 µM, first compound 0.316 µM
[34] = second compound 10 µM, first compound 1 µM
[35] = second compound 10 µM, first compound 3.16 µM
[36] = second compound 10 µM, first compound 10 µM
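Note: spheroids exposed to compounds for one week before readout.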
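Throughout, for viability, T/C: percent viability relative to DMSO vehicle wells taken as 100%.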

Which results are given for `Cc1cccc(N(C)C(=O)C2C(O)CCN2c2nc(C)cc(C(F)(F)F)c2C#N)c1` (centres undefined) + CN(C)c1ccc(Nc2c3ccc(NC(=O)CCN4CCCC4)cc3nc3cc(NC(=O)CCN4CCCC4)ccc23)cc1?
IC50 (second compound 0.0316 µM): > 10 µM; IC50 (second compound 0.1 µM): > 10 µM; IC50 (second compound 0.316 µM): > 10 µM; IC50 (second compound 1 µM): 0.548 µM; IC50 (second compound 3.16 µM): < 0.0316 µM; IC50 (second compound 10 µM): < 0.0316 µM; viability, T/C [1]: 101%; viability, T/C [2]: 107%; viability, T/C [3]: 93.1%; viability, T/C [4]: 91.9%; viability, T/C [5]: 85.5%; viability, T/C [6]: 78.1%; viability, T/C [7]: 107%; viability, T/C [8]: 99.2%; viability, T/C [9]: 116%; viability, T/C [10]: 84.8%; viability, T/C [11]: 75.9%; viability, T/C [12]: 83.9%; viability, T/C [13]: 103%; viability, T/C [14]: 93.3%; viability, T/C [15]: 79.9%; viability, T/C [16]: 62.9%; viability, T/C [17]: 79.8%; viability, T/C [18]: 46.5%; viability, T/C [19]: 68.3%; viability, T/C [20]: 51.1%; viability, T/C [21]: 57.4%; viability, T/C [22]: 45.1%; viability, T/C [23]: 42.6%; viability, T/C [24]: 30%; viability, T/C [25]: 29.9%; viability, T/C [26]: 46.2%; viability, T/C [27]: 21.3%; viability, T/C [28]: 25.1%; viability, T/C [29]: 17.1%; viability, T/C [30]: 9.2%; viability, T/C [31]: 7.38%; viability, T/C [32]: 11.6%; viability, T/C [33]: 10.1%; viability, T/C [34]: 3.67%; viability, T/C [35]: 3.05%; viability, T/C [36]: 1.88%

What does the source list for `CC(C)n1c(=O)n(C)c2cnc3cc(F)c(-c4ccc(OCCCN5CCCCC5)nc4)cc3c21` + Cc1[nH]c2ccc(F)cc2c1-c1nc2c3cccnc3c3ncccc3c2[nH]1?
IC50 (second compound 0.0316 µM): > 10 µM; IC50 (second compound 0.1 µM): 8.61 µM; IC50 (second compound 0.316 µM): 8.62 µM; IC50 (second compound 1 µM): > 10 µM; IC50 (second compound 3.16 µM): 7.88 µM; IC50 (second compound 10 µM): > 10 µM; viability, T/C [1]: 104%; viability, T/C [2]: 111%; viability, T/C [3]: 92.5%; viability, T/C [4]: 97.1%; viability, T/C [5]: 86.2%; viability, T/C [6]: 50.5%; viability, T/C [7]: 104%; viability, T/C [8]: 101%; viability, T/C [9]: 96.3%; viability, T/C [10]: 96.7%; viability, T/C [11]: 92.9%; viability, T/C [12]: 43.3%; viability, T/C [13]: 88.6%; viability, T/C [14]: 103%; viability, T/C [15]: 105%; viability, T/C [16]: 85%; viability, T/C [17]: 106%; viability, T/C [18]: 42.9%; viability, T/C [19]: 114%; viability, T/C [20]: 108%; viability, T/C [21]: 93.7%; viability, T/C [22]: 96.3%; viability, T/C [23]: 92.7%; viability, T/C [24]: 53.5%; viability, T/C [25]: 80.7%; viability, T/C [26]: 103%; viability, T/C [27]: 97.6%; viability, T/C [28]: 72.4%; viability, T/C [29]: 93.8%; viability, T/C [30]: 39.7%; viability, T/C [31]: 99.2%; viability, T/C [32]: 107%; viability, T/C [33]: 83.5%; viability, T/C [34]: 92.5%; viability, T/C [35]: 85.2%; viability, T/C [36]: 50%
